Consider one molecule from US20100099756A1, “USES OF INCENSOLE, INCENSOLE ACETATE AND DERIVATIVES THEREOF” (YISSUM RESEARCH DEVELOPMENT COMPANY OF THE HEBREW …, priority 2006, published 2010).

Series [1] has as its system ROS generation. Briefly: ROS production by zymosan-activated RAW 264.7 macrophages (chemiluminescence). It counts as cell-based, mice. As for the experimental part:
(A(1)) Representative Western Blot bands of Cox2 are shown with tubulin as reference. (A(2)) COX-2 levels were measured in RAW 264.7 cells incubated for 24 hrs. with LPS in the presence or in the absence of IA (60 μM/ml); **, p<0.001. (B) Murine peritoneal macrophages were activated by LPS (1 μg/ml for 24 hrs.) in absence of IA or in the presence of IA at indicated concentrations. NO generation was determined by measuring the nitrite accumulated in the supernatants; **, p<0.001. (C) Generation of ROS by RAW 264.7 macrophages (5×10^5 cells in 0.5 ml Hanks' balanced salt solution) was measured by chemiluminescence. Cells were pre-incubated with various doses of IA for 24 hrs before luminol (10 μl) and zymosan (30 μl) were added to the tubes; *, p<0.05; **, p<0.01; ***, p<0.001
ROS (Reactive Oxygen Species) Production by RAW 264.7 Macrophages. Raw 264.7 cells were scrapped, washed and resuspended in Hanks' balanced salt solution (without phenol red). For measurement of chemiluminescence, 0.5 ml of cell suspension (5×10^5 cells) was added to each luminometer tube, together with various doses of IA tested (dissolved in ethanol and further diluted with Hanks). […] 10 μl of luminol (Sigma, St. Louis, USA) and 30 μl of zymosan (Sigma, St. Louis, USA) were added to the tubes, and the chemiluminescence was measured immediately in a luminometer (Biolumate LB 95, Berhold, Wilbad, Germany).

The test system of series [2] is closed head injury. Briefly: Tissue edema formation (tissue water content) after CHI. It is filed as in vivo, mice. The settings on record: left (ipsilateral) hemisphere, 24 h after injury; P=0.15 vs vehicle.
For series [3], the system named is TNF-α and IL-1β mRNA. Briefly: IL-1β and TNFα mRNA expression after CHI (real-time PCR). Conditions: 3 hours after CHI, 50 mg/kg, relative to β-actin, P<0.05. It is filed as in vivo, mice. As for the experimental part: IL-1β and TNFα mRNA levels were quantified 3 hours post-injury by real time polymarerase chain reaction. β-actin was used as endogenous control. *p<0.05 vs. vehicle, as determined by student's t-tests.
The mRNA levels of these cytokines were quantified at 3 hours after CHI using real-time PCR.

A short description of series [4]: General toxicity in mice. Conditions: single dose 150 mg/kg and 30 mg/kg 3 times a week for a month. It is filed as in vivo.
In series [5] the target is T1, rat TRPV4 (Rattus norvegicus, UniProt Q9ERZ8).
T1 construct: expressed in transfected cells; host or cells: HEK293 cell line
The experiment in a line: Calcium imaging of TRPV4 transfected HEK293 cells. It is filed as cell-based. Conditions: IA 100 μM, compared to vehicle. As for the experimental part: All error bars indicate SEM; p values in all subfigures but c represent analysis with one-way ANOVA Bonferroni's post hoc.
TRPV3-YFP [O'dell, D. K., Rimmerman, N., Pickens, S. R. & Walker J. M. Fatty acyl amides of endogenous tetrahydroisoquinolines are active at the recombinant human TRPV1 receptor. Bioorg. Med. Chem. 15, 6164-6169 (2007)], TRPV4 and mock-transfected cell lines were cultured in DMEM 1× with L-glutamine (Mediatech, Inc. Herndon, Va.), containing 1% penicillin-streptomycin (Invitrogen, Carlsbad, Calif.) and 10% foetal bovine serum.
Calcium imaging of HEK 293 cells. TRPV1, TRPV3, and TRPV4 expressing HEK293 cells were plated 24-48 h before imaging in 96 well plates, loaded with 3 μM Fura-2 AM and imaged as previously described [O'dell, D. K., Rimmerman, N., Pickens, S. R. & Walker J. M. Fatty acyl amides of endogenous tetrahydroisoquinolines are active at the recombinant human TRPV1 receptor. Bioorg. Med. Chem. 15, 6164-6169 (2007)].

T1 sequence (Q9ERZ8 whole entry): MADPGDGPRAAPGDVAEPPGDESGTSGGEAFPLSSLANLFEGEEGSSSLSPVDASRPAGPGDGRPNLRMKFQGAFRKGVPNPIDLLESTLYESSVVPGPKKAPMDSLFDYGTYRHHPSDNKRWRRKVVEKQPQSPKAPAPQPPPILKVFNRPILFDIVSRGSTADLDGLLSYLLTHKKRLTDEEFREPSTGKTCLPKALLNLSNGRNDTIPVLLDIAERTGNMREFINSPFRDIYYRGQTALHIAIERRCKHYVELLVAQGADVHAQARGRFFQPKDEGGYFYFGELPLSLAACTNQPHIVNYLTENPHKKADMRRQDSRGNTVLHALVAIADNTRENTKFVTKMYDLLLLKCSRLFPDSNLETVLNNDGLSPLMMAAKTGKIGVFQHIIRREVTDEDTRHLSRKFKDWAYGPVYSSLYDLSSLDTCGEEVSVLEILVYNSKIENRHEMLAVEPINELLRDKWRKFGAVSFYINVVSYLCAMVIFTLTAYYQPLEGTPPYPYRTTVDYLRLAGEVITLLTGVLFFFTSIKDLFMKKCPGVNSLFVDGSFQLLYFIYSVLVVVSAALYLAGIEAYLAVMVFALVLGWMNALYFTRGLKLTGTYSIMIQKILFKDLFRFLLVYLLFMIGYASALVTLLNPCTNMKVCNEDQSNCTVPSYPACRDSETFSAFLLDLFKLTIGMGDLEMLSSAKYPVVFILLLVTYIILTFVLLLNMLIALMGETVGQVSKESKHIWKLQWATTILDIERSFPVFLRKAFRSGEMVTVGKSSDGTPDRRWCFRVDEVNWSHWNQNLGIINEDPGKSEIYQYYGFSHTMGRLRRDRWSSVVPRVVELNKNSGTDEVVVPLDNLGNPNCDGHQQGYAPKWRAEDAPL

For `CC(=O)OC1CC/C(C)=C/CC/C(C)=C/CC2(C(C)C)CCC1(C)O2` (stereo not shown) [IA, incensole acetate], in series [1] (Mus musculus, RAW264.7, at 60 μM, p=0.0021), the inhibition at 60 µM was around 45%. In series [1] (three concentrations, 24 hrs pre-incubation, ANOVA P<0.0001), the “ROS generation, dose dependence” value is recorded as “significant dose-dependent inhibitory effect”. In addition, the tissue water content in series [2] is on record as 81.47±0.35%. Moreover, in series [3], the “IL-1β mRNA expression” value is reported as “significantly inhibited mRNA expression” and the “TNF-α mRNA expression” value is reported as “significantly inhibited mRNA expression”. For the same molecule, the weight loss result in series [4] is listed as “No weight loss was observed”. Also, the “calcium influx in TRPV4 transfected HEK293 cells” value in series [5] was “very modest calcium influx”.
